Experiments:
[1] = 1-Octanol-water distribution coefficient, log D of the compound at pH 7.4 by shake-flask method; format: physicochemical
[2] = 1-Octanol-sodium citrate buffer distribution coefficient, log D of the compound at pH 5.5 by shake-flask method; format: physicochemical
[3] = Plasma protein binding in human; format: ADME, cell-free; conditions: read-out: PPB (converted)
[4] = Lipophilicity, log P of the compound; format: physicochemical; conditions: octanol/water
[5] = 1-octanol/sodium citrate buffer, read-out: logD

| logD [1] | logD [2, 5] | fraction unbound [3] | logP ([4]; read-out: logP) | logP [4] | logD ([2]; octanol/water) | Structure (SMILES) |
| --- | --- | --- | --- | --- | --- | --- |
| -1.8 | -0.5 | 0.5 |  |  |  | CCOC(=O)[C@H](CCc1ccccc1)N[C@@H](C)C(=O)N1CCC[C@H]1C(=O)O |
|  |  | 0.009 |  |  |  | CCc1cccc2c3c([nH]c12)C(CC)(CC(=O)O)OCC3 (stereo unspecified) [ETODOLAC] |
|  |  | 0.105 |  |  |  | CCOC(=O)[C@H](CCc1ccccc1)N[C@@H](C)C(=O)N1[C@H](C(=O)O)C[C@@H]2CCC[C@@H]21 |
| -0.3 | 1.3 | 0.25 | 2.4 |  |  | CC(=O)c1ccc(S(=O)(=O)NC(=O)NC2CCCCC2)cc1 [ACETOHEXAMIDE] |
| 2.2 | 3.5 |  |  |  |  | Cc1cc(SCc2sc(-c3ccc(C(F)(F)F)cc3)nc2C)ccc1OCC(=O)O [GW501516] |
| 0.9 | 2.4 | 0.02 |  |  |  | CCCCC1=NC2(CCCC2)C(=O)N1Cc1ccc(-c2ccccc2-c2nnn[nH]2)cc1 [IRBESARTAN] |
| -0.3 | 1.1 | 0.007 |  |  |  | CN1C(C(=O)Nc2ccccn2)=C(O)c2ccccc2S1(=O)=O [PIROXICAM] |
| 2.2 | 3.2 | 0.009 |  |  |  | CCOc1cc(CC(=O)N[C@@H](CC(C)C)c2ccccc2N2CCCCC2)ccc1C(=O)O [REPAGLINIDE] |
| 0.5 | 2.3 | 0.025 | 3 |  |  | O=C(O)CCn1c2c(c3ccccc31)C[C@H](NS(=O)(=O)c1ccc(F)cc1)CC2 [RAMATROBAN] |
| -0.6 | 1.1 | 0.016 |  |  |  | CCCCNc1cc(C(=O)O)cc(S(N)(=O)=O)c1Oc1ccccc1 [BUMETANIDE] |
| -1 | 0.8 | 0.003 | 2.7 |  |  | Cc1ccc(C(=O)c2ccc(CC(=O)O)n2C)cc1 [TOLMETIN] |
|  |  | 0.041 |  |  |  | CCOC(=O)[C@H](CCc1ccccc1)N[C@H]1CCc2ccccc2N(CC(=O)O)C1=O [BENAZEPRIL] |
| 2.8 |  | 0.004 |  | 2.6 | 3.7 | CN(C)S(=O)(=O)NC(=O)CCCc1c(-c2ccc(F)cc2)[nH]c2ccc(C#N)cc12 |
| -1.6 | 0 | 0.065 |  |  |  | Cc1nnc(NS(=O)(=O)c2ccc(N)cc2)s1 [SULFAMETHIZOLE] |
| 0.6 | 2.2 | 0.02 |  |  |  | CCCCc1nc(Cl)c(CO)n1Cc1ccc(-c2ccccc2-c2nn[nH]n2)cc1 [LOSARTAN] |
| 0 | 1.2 | 0.06 |  |  |  | Cc1ccc(S(=O)(=O)NC(=O)NN2CCCCCC2)cc1 [TOLAZAMIDE] |
| 1 | 2.5 | < 0.001 | 3.1 |  |  | O=C(O)CCc1nc(-c2ccccc2)c(-c2ccccc2)o1 [OXAPROZIN] |
| 2.2 | 3.5 | 0.002 |  |  |  | COc1ccc(Cl)cc1C(=O)NCCc1ccc(S(=O)(=O)NC(=O)NC2CCCCC2)cc1 [GLYBURIDE] |

| Structure (SMILES) | logD [1] | logD [2, 5] | fraction unbound [3] | logP ([4]; read-out: logP) | logP [4] | logD ([2]; octanol/water) |
| --- | --- | --- | --- | --- | --- | --- |
| O=C(c1ccccc1)c1ccc2n1CCC2C(=O)O (stereo unspecified) [KETOROLAC] | -1 | 0.6 | 0.008 | 2.7 |  |  |
| O=C(O)CCCc1ccc(N(CCCl)CCCl)cc1 [CHLORAMBUCIL] | 1.4 | 3.2 | 0.01 |  |  |  |
| COc1ccc2c(c1)c(CC(=O)O)c(C)n2C(=O)c1ccc(Cl)cc1 [INDOMETHACIN] |  | 2.7 |  | 3.8 |  |  |
